Measured values: ChEMBL document CHEMBL4699538 (Bioorg Med Chem Lett, 2020)

Legend:
[1] = target: Dihydroorotate dehydrogenase (quinone), mitochondrial (Homo sapiens, UniProt Q02127); assay: Inhibition of human DHODH
[2] = tested on: MOLM-13; assay: Antiproliferative activity against human MOLM-13 cells; assay type: functional, cell-based
[3] = Plasma protein binding in human assessed as unbound fraction; assay type: ADME, cell-free
[4] = Metabolic stability in human liver microsomes assessed as half life; assay type: ADME, Microsome
[5] = Metabolic stability in mouse liver microsomes assessed as half life; assay type: ADME, Microsome
[6] = Oral bioavailability in C57 mouse at 10 mg/kg; assay type: ADME, organism-based; settings: in vivo
[7] = Half life in C57 mouse at 10 mg/kg, po or 2 mg/kg, iv; assay type: ADME, organism-based; settings: in vivo
[8] = Clearance in C57 mouse at 10 mg/kg, po or 2 mg/kg, iv; assay type: ADME, organism-based; settings: in vivo
[9] = Volume of distribution at steady state in C57 mouse at 10 mg/kg, po or 2 mg/kg, iv; assay type: ADME, organism-based; settings: in vivo, read-out: Vdss
[10] = Plasma protein binding in mouse assessed as unbound fraction; assay type: ADME, cell-free

Chain of Dihydroorotate dehydrogenase (quinone), mitochondrial (Q02127 whole entry): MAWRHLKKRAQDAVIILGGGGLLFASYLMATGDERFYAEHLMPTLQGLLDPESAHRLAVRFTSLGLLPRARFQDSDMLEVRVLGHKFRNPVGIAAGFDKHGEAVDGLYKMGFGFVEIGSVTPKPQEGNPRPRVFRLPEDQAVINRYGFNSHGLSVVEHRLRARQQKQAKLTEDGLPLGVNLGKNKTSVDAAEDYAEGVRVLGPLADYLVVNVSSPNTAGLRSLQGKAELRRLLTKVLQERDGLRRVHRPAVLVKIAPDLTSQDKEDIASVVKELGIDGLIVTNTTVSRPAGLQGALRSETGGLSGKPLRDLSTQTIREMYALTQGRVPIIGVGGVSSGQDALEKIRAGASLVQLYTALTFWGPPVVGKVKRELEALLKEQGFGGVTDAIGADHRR

Compound	IC50 [1] [nM]	IC50 ([2]; Homo sapiens, MOLM-13) [nM]	half-life [4] [h]	half-life [5] [h]	further results
Cc1c(-c2ccc(-c3ccccc3F)cc2)nc2ccc(F)cc2c1C(=O)NC#N	116	> 3000	–	–	–
CONC(=O)c1c(C)c(-c2ccc(-c3ccccc3F)cc2)nc2ccc(F)cc12	0.12	9	> 3	0.95	Fu [3]: 0.55%; bioavailability [6]: 108%; half-life [7]: 2.35 h; clearance [8]: 5.09 mL/min/kg; Vd [9]: 1.15 L/kg; Fu [10]: 0.77%
Cc1c(-c2ccc(-c3ccccc3F)cc2)nc2ccc(F)cc2c1C(F)F	160	> 3000	–	–	–
COC(=O)NC(=O)c1c(C)c(-c2ccc(-c3ccccc3F)cc2)nc2ccc(F)cc12	1250	403	–	–	–
Cc1c(-c2ccc(-c3ccccc3F)cc2)nc2ccc(F)cc2c1C(=O)N(C)O	7.7	5100	–	–	–
Cc1c(-c2ccc(-c3ccccc3F)cc2)nc2ccc(F)cc2c1C(=O)NO	1.4	23	> 3	0.6	–
Cc1c(-c2ccc(-c3ccccc3F)cc2)nc2ccc(F)cc2c1C(N)=O	47	128	2.25	1.08	–
Cc1c(-c2ccc(-c3ccccc3F)cc2)nc2ccc(F)cc2c1C(=O)NS(C)(=O)=O	32	300	–	–	–
Cc1c(-c2ccc(-c3ccccc3F)cc2)nc2ccc(F)cc2c1-c1noc(=O)[nH]1	1560	> 3000	–	–	–
Cc1c(-c2ccc(-c3ccccc3F)cc2)nc2ccc(F)cc2c1C(=O)C(F)(F)F	74	> 3000	–	–	–
Cc1c(-c2ccc(-c3ccccc3F)cc2)nc2ccc(F)cc2c1-c1nnn[nH]1	223	> 3000	–	–	–
Cc1c(-c2ccc(-c3ccccc3F)cc2)nc2ccc(F)cc2c1C(O)C(F)(F)F (stereo not given)	808	640	–	–	–
CCONC(=O)c1c(C)c(-c2ccc(-c3ccccc3F)cc2)nc2ccc(F)cc12	4.2	33	> 3	0.3	–
Cc1c(-c2ccc(-c3ccccc3F)cc2)nc2ccc(F)cc2c1CO	166	700	–	–	–
Cc1c(-c2ccc(-c3ccccc3F)cc2)nc2ccc(F)cc2c1C(=O)O [BREQUINAR]	–	–	> 3	> 3	Fu [3]: 0.39%; IC50 ([2]; molm-13): 60 nM; bioavailability [6]: 72%; clearance [8]: 0.2 mL/min/kg; Vd [9]: 0.3 L/kg; Fu [10]: 0.73%
